Measured values published in patent US10507209B2, “Quinazoline derivatives substituted by aniline, preparation method and use thereof” (XUANZHU PHARMA CO., LTD., priority 2010, dated 2019).
Where a name gives a salt, the structure may show the parent alone. Read-outs that look alike come from different tables or passages of the source. Marks after values point to notes of the source that are not given here.

Columns and labels:
[1] = tested on: H1975 cells; assay: In vitro cellular inhibitory activity on H1975 (XTT); assay type: cell-based; conditions: Homo sapiens, NCI-H1975, 72 hours
Source text: Table 2 in vitro cellular inhibitory activities on H1975 (NSCLC, nonsmall-cell lung cancer)

[2] = tested on: A431 cells; assay: In vitro cellular inhibitory activity on A431 (XTT); assay type: cell-based; conditions: Homo sapiens, A-431, 72 h, read-out: IC50 A431 cells
[3] = tested on: Calu-3 cells; assay: In vitro cellular inhibitory activity on Calu-3 (XTT); assay type: cell-based; conditions: Homo sapiens, 72 hours
Source text: Table 3 in vitro cellular inhibitory activities on Calu-3 (NSCLC nonsmall-cell lung cancer)

[4] = tested on: human-derived LN-229 glioblastoma xenograft; assay: In vivo pharmacodynamic evaluation, human-derived LN-229 glioblastoma xenograft; set-up: species or system BALB/c nude mice; conditions: 28 days after the administration
[5] = tested on: human-derived cholangiocarcinoma (10114) xenograft model; assay: In vivo pharmacodynamic evaluation, human-derived cholangiocarcinoma (10114) xenograft model; set-up: species or system BALB/c nude mice
Protocol: 10114, cholangiocarcinoma from a patient.
Tumor tissues of human cholangiocarcinoma (10114) were cut into tumor blocks of volume of 3 mm×3 mm×3 mm which were inoculated subcutaneously in mice. The tumor volume was observed and measured. […] The efficacy was evaluated according to the tumor growth inhibition (TGI).
The experimental data were analyzed using statistical software SPSS 20.0. The data associated with the tumor volume was analyzed with T-test. **P<0.05 compared with the control group represents significant statistical difference.

[6] = tested on: SKOV-3 human-derived xenografts model in ovarian cancer; assay: In vivo pharmacodynamic evaluation, SKOV-3 human-derived xenografts model in ovarian cancer; set-up: species or system BALB/c nude mice; conditions: 14 days after the administration
Protocol: The tumor was then stripped under sterile conditions to remove the necrotic tissues and select the well developed tumor tissues which were inoculated subcutaneously into an animal again. In this way the tumor tissues were subjected to passage for twice in the body of the mice. […] The tumor blocks were inoculated subcutaneously to the right coastal region of the mice with an inoculation needle. […] The tumor size was measured twice a week with an […] caliper.

[7] = tested on: gallbladder carcinoma xenografts model GL6899; assay: In vivo pharmacodynamic evaluation, gallbladder carcinoma xenografts model GL6899; set-up: species or system BALB/c nude mice
Protocol: GL6899, gallbladder carcinoma from a patient
Comparison between the two groups of data was tested by independent sample t test.

[8] = tested on: KYSE270 human esophageal carcinoma model; conditions: for Relative Tumor Volume / T/C / TGI / Tumor Volume: 21 days after the administration
[9] = tested on: human-derived xenograft model HN2170; assay: In vivo pharmacodynamic evaluation, head and neck cancer xenograft model HN2170; set-up: species or system BALB/c nude mice; conditions: for Tumor Volume (Day 0): Day 0 (grouping, baseline); for T/C / TGI / Tumor Volume: 25 days after the administration
Protocol: HN2170, head and neck cancer from a patient.
They were administered totally 25 days.

[10] = tested on: 5637 cells; assay: In vitro cellular inhibitory activity on 5637 bladder carcinoma cells (CTG kit); assay type: cell-based; conditions: Homo sapiens, 72 hours
Protocol: The effect of the compound to be tested on 5637 (bladder carcinoma) cell proliferation was tested using CTG kit.
535 μl DMSO was added into an EP tube filled with 3.32 mg of Compound 18 and evenly shaken (10 mM);
590 μl DMSO was added into an EP tube filled with 3.16 mg of Compound AZD9291 and evenly shaken (10 mM);
The compound was diluted with DMSO by 4-fold from 10 mM to 2.5 mM, 625 μM, 156 μM, 39 μM, 9.8 μM, 2.4 μM, 0.61 μM, 0.15 μM, 0.04 μM in turn.
Formulating a stock solution of a 10-fold compound: 2 μl 1000-fold Compound 18 or AZD9291 was respectively added into a 198 μl culture medium and evenly shaken.
1) Plating in the 384-well plate with 250 cells/well/22.5 ul;
2) After 24 hours, each well was added with 2.5 ul 10-fold drug which was well diluted to make the final concentration of 10 μM, 2.5 μM, 625 nM, 156 nM, 39 nM, 9.8 nM, 2.5 nM, 0.610 nM, 0.153 nM, 0.04 nM.
3) The plate was placed in the CO2 incubator and incubated at 37° C. for 72 hours
2) Each well was added with 25 ul CellTiter-Glo® agent, mixed for 2 minutes and placed at room temperature while being kept in darkness for 10 minutes.
3) Reading the […] using EnVision 2104 Multilabel Reader.

[11] = tested on: NCI-N87 cell; assay: In vitro cellular inhibitory activity on NCI-N87 gastric carcinoma cells (XTT); assay type: cell-based; conditions: Homo sapiens, read-out: IC50 NCI-N87 cell
Protocol: For each compound, the above operation was triplicated. […] 2) The plate was placed in the CO2 incubator and incubated at 37° C. for 72 hours. 2) The culture medium was removed and each well was added with 150 μl XTT working solution. […] 4) Slightly and evenly shaking before reading the absorbance.

[12] = tested on: BT474 cells; assay: In vitro cellular inhibitory activity on BT474 mammary cancer cells (XTT); assay type: cell-based; conditions: Homo sapiens, BT-474, 72 hours
Protocol: BT474 cells (human breast ductal carcinoma cell, purchased from ATCC). […] The maximum concentration of the test compound was 10 μM, and there were 10 concentration gradients in total. For each compound, the operation was duplicated. […] 2) The plate was placed in the CO2 cell incubator and incubated at 37° C. for 72 hours. 2) The culture medium was removed; each well was added with 150 μl XTT working solution. […] 4) Slightly and evenly shaking before reading the absorbance.

[13] = 20 mg/kg oral once a day, 21 days after the administration
[14] = 20 mg/kg p.o. once a day, 21 days

## C=CC(=O)Nc1cc2c(Nc3ccc(F)c(Cl)c3)ncnc2cc1OCCCN1CCOCC1 [CI-1033 hydrochloride, reference compound]
[1]
  IC50: 0.157 µM
[2]
  IC50: 0.402 µM
[3]
  IC50: 0.686 µM

## C=CC(=O)Nc1cc2c(Nc3ccc(F)c(Cl)c3)ncnc2cc1OCC[C@@H]1[C@H]2CN(C)C[C@@H]12 [Compound 8]
[4]; 30 mg/kg oral once a day
  T/C: 21.3%
  TGI: 78.7%
  Tumor Volume: 121 ± 17 mm^3
[1]
  IC50: 0.306 µM

## C=CC(=O)Nc1cc2c(Nc3ccc(F)c(Cl)c3)ncnc2cc1OCC1CC2(CCN(C)CC2)C1 [Compound 18, N-[4-(3-chloro-4-fluorophenylamino)-7-((7-methyl-7-azaspiro[3.5]nonan-2-yl)methoxy)quinazolin-6-yl]-acrylamide]
[4]; 10 mg/kg oral once a day
  T/C: 45.6%
  TGI: 54.4%
  Tumor Volume: 260 ± 27 mm^3
[4]; 20 mg/kg oral once a day
  T/C: 34.0%
  TGI: 66.0%
  Tumor Volume: 191 ± 11 mm^3
[1]
  IC50: 0.0923 µM
[5]; 20 mg/kg group, Day 0 (grouping, baseline)
  Tumor Volume On Day 0: 138.6 ± 8.9 mm^3
[5]; [13]
  Relative Tumor Volume: 77.13 ± 9.34%
  T/C: 18.1%
  TGI: 81.9%
  Tumor Volume: 107.53 ± 15.80*** mm^3
[6]; 10 mg/kg oral once a day
  T/C: 49.1%
  TGI: 50.9%
  Tumor Volume: 798 ± 88 mm^3
[6]; 20 mg/kg oral once a day
  T/C: 32.1%
  TGI: 67.9%
  Tumor Volume: 540 ± 86 mm^3
[7]; 20 mg/kg group, day 0 (grouping, baseline)
  Tumor Volume on day 0: 135.53 ± 9.60 mm^3
[7]; [14]
  T/C: 2.6%
  TGI: 97.4%
  Tumor Volume after adminstration of 21 days: 26.63 ± 2.37*** mm^3
[8]; 10 mg/kg and 20 mg/kg
  Tolerability in mice with tumor: can tolerate the tested drugs well
[8]; 10 mg/kg oral once a day
  Relative Tumor Volume: 0.33 ± 0.05
  T/C: 2%
  TGI: 98%
  Tumor Volume: 40 ± 6 mm^3
[8]; 20 mg/kg oral once a day
  Relative Tumor Volume: 0.11 ± 0.02
  T/C: 1%
  TGI: 99%
  Tumor Volume: 14 ± 3 mm^3
[9]; 20 mg/kg group
  Tumor Volume (Day 0): 143.1 ± 22.9 mm^3
[9]; 20 mg/kg oral once a day
  T/C: 6.5%
  TGI: 93.5%
  Tumor Volume: 46.3 ± 10.6*** mm^3
[10]
  IC50: 0.0386 µM
[3]
  IC50: 0.0382 µM
[11]; NCI-N87, 72 hours, XTT
  IC50: 0.0071 µM
[12]
  IC50: 0.0097 µM

## C=CC(=O)Nc1cc2c(Nc3ccc(F)c(Cl)c3)ncnc2cc1OCCC1CC2(CCN(C)CC2)C1 [Compound 19 hydrochloride, N-[4-(3-chloro-4-fluorophenylamino)-7-(2-(7-methyl-7-azaspiro[3.5]nonan-2-yl)ethoxy)quinazolin-6-yl]-acrylamide hydrochloride]
[1]
  IC50: 0.104 µM

## C#Cc1cccc(Nc2ncnc3cc(OCCOC)c(OCCOC)cc23)c1 [Erlotinib hydrochloride, erlotinib hydrochloride, reference compound]
[1]
  IC50: 3.98 µM
[3]
  IC50: 1.32 µM

## CS(=O)(=O)CCNCc1ccc(-c2ccc3ncnc(Nc4ccc(OCc5cccc(F)c5)c(Cl)c4)c3c2)o1 [Lapatinib ditosylate, lapatinib ditosylate, reference compound]
[1]
  IC50: 4.53 µM
[3]
  IC50: 0.0943 µM

## CS(=O)(=O)CCNCc1ccc(-c2ccc3ncnc(Nc4ccc(OCc5cccc(F)c5)c(Cl)c4)c3c2)o1 [Lapatinib, reference compound]
[4]; 200 mg/kg oral once a day
  T/C: 45.6%
  TGI: 54.4%
  Tumor Volume: 261 ± 42 mm^3
[6]; 80 mg/kg oral once a day
  T/C: 83.4%
  Tumor Volume: 1339 ± 167 mm^3
[11]; NCI-N87, 72 h
  IC50: 0.0119 µM

## CCOc1cc2ncc(C#N)c(Nc3ccc(OCc4ccccn4)c(Cl)c3)c2cc1NC(=O)/C=C/CN(C)C [Neratinib, reference compound]
[4]; 80 mg/kg oral once a day
  T/C: 34.3%
  TGI: 65.7%
  Tumor Volume: 197 ± 20 mm^3
[9]; 80 mg/kg group
  Tumor Volume (Day 0): 142.4 ± 23.4 mm^3
[9]; 80 mg/kg oral once a day
  T/C: 7.2%
  TGI: 92.8%
  Tumor Volume: 53.7 ± 10.3*** mm^3
